Like-named read-outs stand apart in the source and are kept apart here. Peptide text beside a SMILES is read from it.
How the values were obtained:
Format in all cases: biochemical
B. asaccharolyticus = conditions: β-naphthylamine liberated after 60 minutes, 37° C.
In short: (§1)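 N-CBz-glycyl-glycyl-L-arginine-β-naphthylamide was hydrolysed for 1 hour at 37 °C, then coupled with Fast Garnet GBC (0.5 mg/ml) in 1M acetic acid buffer, pH 4.2, containing 10% Tween 20. After 15 minutes at room temperature, absorbance was read at 525 nm against a no-enzyme blank; activity is given as nmol β-naphthylamine released per 60 min.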

B. levii = conditions: β-naphthylamine liberated after 60 minutes, 37° C.
In short: as §1

B. loescheii = conditions: β-naphthylamine liberated after 60 minutes, 37° C.
In short: as §1

B. mel. ss. intermedius = conditions: β-naphthylamine liberated after 60 minutes, 37° C.
In short: as §1

Bacteroides gingivalis = conditions: β-naphthylamine liberated after 60 minutes, 37° C.
In short: as §1

C. ochracea = conditions: strain ATCC 27872; β-naphthylamine liberated after 60 minutes, 37° C.
In short: as §1

[1] = tested on: Capnocytophaga gingivalis; conditions: strain ATCC 33624; β-naphthylamine liberated after 60 minutes, 37° C.
In short: as §1

Capnocytophaga sp. = conditions: strain JD3-5; β-naphthylamine liberated after 60 minutes, 37° C.
In short: as §1

"Anaerobic vibrio" = conditions: strain SN2T2; β-naphthylamine liberated after 60 minutes, 37° C.
In short: (§2)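 Readout: absorbance at 525 nm (or visual match to standard solutions) after diazo coupling with Fast Garnet GBC. Substrate N-CBz-glycyl-glycyl-L-arginine-β-naphthylamide, 1 h, 37° C. Values = nmol β-naphthylamine released per 60 min; no-enzyme mixture as control.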

A. seminis = conditions: strain ATCC 15768; β-naphthylamine liberated after 60 minutes, 37° C.
In short: as §2

A. viscosus = conditions: β-naphthylamine liberated after 60 minutes, 37° C.
In short: as §2

[2] = tested on: Actinobacillus actinomycetemcomitans; conditions: β-naphthylamine liberated after 60 minutes, 37° C.
In short: as §2

Actinomyces israeli = conditions: β-naphthylamine liberated after 60 minutes, 37° C.
In short: as §2

Campylobacter sputorum = conditions: strain Ba1-21; β-naphthylamine liberated after 60 minutes, 37° C.
In short: as §2

Fusobacterium nucleatum = conditions: β-naphthylamine liberated after 60 minutes, 37° C.
In short: as §2

S. mutans = conditions: strain ATCC 25175; β-naphthylamine liberated after 60 minutes, 37° C.
In short: as §2

S. sanguis = conditions: β-naphthylamine liberated after 60 minutes, 37° C.
In short: as §2

Streptococcus mitis = conditions: β-naphthylamine liberated after 60 minutes, 37° C.
In short: as §2

V. parvula = conditions: strain ATCC 10790; β-naphthylamine liberated after 60 minutes, 37° C.
In short: as §2

Veillonella sp. = conditions: strain SE1M2; β-naphthylamine liberated after 60 minutes, 37° C.
In short: as §2

A. equuli = test: Aminopeptidase activity on β-naphthylamide substrates; conditions: strain ATCC 19392; β-naphthylamine liberated after 60 minutes, 37° C.
In short: as §2

A. suis = test: as above; conditions: strain ATCC 15557; β-naphthylamine liberated after 60 minutes, 37° C.
In short: as §2

F. periodonticum = test: as above; conditions: strain EK1-15; β-naphthylamine liberated after 60 minutes, 37° C.
In short: as §2

Haemophilus aphrophilus = test: as above; conditions: β-naphthylamine liberated after 60 minutes, 37° C.
In short: as §2

L. fermentum = test: as above; conditions: strain ATCC 11581; β-naphthylamine liberated after 60 minutes, 37° C.
In short: as §2

Lactobacillus casei = test: as above; conditions: β-naphthylamine liberated after 60 minutes, 37° C.
In short: as §2

S. salivarius = test: as above; conditions: β-naphthylamine liberated after 60 minutes, 37° C.
In short: as §2

SMILES: CC(C)C[C@H](N)C(=O)NCC(=O)O [Leu-Gly, Leucyl-glycine] (H-Leu-Gly-OH)
- Aminopeptidase activity (B. asaccharolyticus; strain 536B): 49 nmol
- Aminopeptidase activity (B. asaccharolyticus; strain ATCC 18569): 25 nmol
- Aminopeptidase activity (B. asaccharolyticus; strain ATCC 25260): 37 nmol
- Aminopeptidase activity (B. asaccharolyticus; strain ATCC 27067): 51 nmol
- Aminopeptidase activity (B. asaccharolyticus; strain NY446): 0 nmol
- Aminopeptidase activity (B. levii; strain 18-1-5): 47 nmol
- Aminopeptidase activity (B. levii; strain 18-1-8): 51 nmol
- Aminopeptidase activity (B. loescheii; strain ATCC 15930): 20 nmol
- Aminopeptidase activity (B. loescheii; strain VPI4196): 58 nmol
- Aminopeptidase activity (B. mel. ss. intermedius; strain ATCC 25261): 9 nmol
- Aminopeptidase activity (B. mel. ss. intermedius; strain ATCC 33563): 2 nmol
- Aminopeptidase activity (B. mel. ss. intermedius; strain NCTC 9336): 11 nmol
- Aminopeptidase activity (Bacteroides gingivalis; strain 9-14K-1): 6 nmol
- Aminopeptidase activity (Bacteroides gingivalis; strain 11-1-2): 47 nmol
- Aminopeptidase activity (Bacteroides gingivalis; strain 381): 76 nmol
- Aminopeptidase activity (Bacteroides gingivalis; strain 1021): 16 nmol
- Aminopeptidase activity (Bacteroides gingivalis; strain ATCC 33277): 48 nmol
- Aminopeptidase activity (Bacteroides gingivalis; strain FAYE 19m-1): 6 nmol
- Aminopeptidase activity (C. ochracea): 9 nmol
- Aminopeptidase activity [1]: 8 nmol
- Aminopeptidase activity (Capnocytophaga sp.): 0 nmol
- Aminopeptidase activity ("Anaerobic vibrio"): 0 nmol
- Aminopeptidase activity (A. seminis): 0 nmol
- Aminopeptidase activity (A. viscosus; strain ATCC 19246): 0 nmol
- Aminopeptidase activity (A. viscosus; strain T14V): 0 nmol
- Aminopeptidase activity ([2]; strain 67): 2 nmol
- Aminopeptidase activity ([2]; strain 75): 0 nmol
- Aminopeptidase activity ([2]; strain ATCC 29523): 0 nmol
- Aminopeptidase activity ([2]; strain NCTC 9709): 0 nmol
- Aminopeptidase activity ([2]; strain Y4): 0 nmol
- Aminopeptidase activity (Actinomyces israeli; strain ATCC 12103): 0 nmol
- Aminopeptidase activity (Actinomyces israeli; strain DK2-3): 0 nmol
- Aminopeptidase activity (Campylobacter sputorum): 0 nmol
- Aminopeptidase activity (Fusobacterium nucleatum; strain 2): 2 nmol
- Aminopeptidase activity (Fusobacterium nucleatum; strain ATCC 25586): 0 nmol
- Aminopeptidase activity (Fusobacterium nucleatum; strain D31A-24): 0 nmol
- Aminopeptidase activity (S. mutans): 0 nmol
- Aminopeptidase activity (S. sanguis; strain ATCC 10556): 0 nmol
- Aminopeptidase activity (S. sanguis; strain ATCC 10557): 0 nmol
- Aminopeptidase activity (Streptococcus mitis; strain ATCC 9815): 0 nmol
- Aminopeptidase activity (Streptococcus mitis; strain ATCC 15909): 0 nmol
- Aminopeptidase activity (Streptococcus mitis; strain ATCC 15911): 124 nmol
- Aminopeptidase activity (Streptococcus mitis; strain ATCC 15912): 0 nmol
- Aminopeptidase activity (V. parvula): 0 nmol
- Aminopeptidase activity (Veillonella sp.): 0 nmol
- Aminopeptidase activity (A. equuli): 0 nmol
- Aminopeptidase activity (A. suis): 0 nmol
- Aminopeptidase activity (F. periodonticum): 0 nmol
- Aminopeptidase activity (Haemophilus aphrophilus; strain ATCC 13252): 0 nmol
- Aminopeptidase activity (Haemophilus aphrophilus; strain ATCC 19415): 0 nmol
- Aminopeptidase activity (Haemophilus aphrophilus; strain NCTC 5908): 0 nmol
- Aminopeptidase activity (L. fermentum): 2 nmol
- Aminopeptidase activity (Lactobacillus casei; strain ATCC 7469): 0 nmol
- Aminopeptidase activity (Lactobacillus casei; strain ATCC 11578): 2 nmol
- Aminopeptidase activity (Lactobacillus casei; strain ATCC 11582): 1 nmol
- Aminopeptidase activity (S. salivarius; strain ATCC 9759): 0 nmol
- Aminopeptidase activity (S. salivarius; strain ATCC 25975): 0 nmol
